These are literature values, as cited in patent publication US7317103B2, “Imaging agents for diagnosis of Parkinson's disease” (Molecular Insight Pharmaceuticals, Inc., priority 2000, dated 2008).

The conditions of the data set: Tc-99m labeled tropane analog, Kung et al.

Regarding `CN1[C@H]2CC[C@@H]1[C@@H](CN(CC[S-])CC[N-]CC[S-])[C@@H](c1ccc(Cl)cc1)C2.[O]=[99Tc+4]` [TRODAT], the absolute brain uptake entry is on record as “very low”.
